Results as given in ChEMBL document CHEMBL1133041, “Synthetic conversion of ACAT inhibitor to acetylcholinesterase inhibitor” (Bioorg Med Chem Lett, 2000).

Assays:
[1] = target: T1, Sterol O-acyltransferase 1 (Homo sapiens, UniProt P35610); assay: Inhibitory activity against acyl-CoA:cholesterol acyltransferase (ACAT); no inhibition >1000
T1 sequence (P35610 whole entry): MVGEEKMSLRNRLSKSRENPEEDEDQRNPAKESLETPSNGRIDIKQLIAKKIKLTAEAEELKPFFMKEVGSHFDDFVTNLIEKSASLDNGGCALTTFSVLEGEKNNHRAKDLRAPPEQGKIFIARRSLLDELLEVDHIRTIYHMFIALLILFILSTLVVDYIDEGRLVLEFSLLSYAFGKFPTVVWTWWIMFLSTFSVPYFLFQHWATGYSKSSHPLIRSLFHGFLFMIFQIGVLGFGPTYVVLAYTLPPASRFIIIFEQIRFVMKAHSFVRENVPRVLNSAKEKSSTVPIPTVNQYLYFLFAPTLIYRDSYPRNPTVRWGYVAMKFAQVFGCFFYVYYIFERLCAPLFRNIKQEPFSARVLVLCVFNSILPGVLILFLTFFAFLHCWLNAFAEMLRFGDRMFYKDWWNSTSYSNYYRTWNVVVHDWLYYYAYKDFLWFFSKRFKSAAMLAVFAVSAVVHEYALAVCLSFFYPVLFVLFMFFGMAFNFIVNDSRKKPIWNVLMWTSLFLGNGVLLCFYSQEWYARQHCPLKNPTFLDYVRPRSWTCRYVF

[2] = target: T2, Acetylcholinesterase (Homo sapiens, UniProt P22303); assay: Inhibitory activity against Acetylcholinesterase
T2 sequence (P22303 whole entry): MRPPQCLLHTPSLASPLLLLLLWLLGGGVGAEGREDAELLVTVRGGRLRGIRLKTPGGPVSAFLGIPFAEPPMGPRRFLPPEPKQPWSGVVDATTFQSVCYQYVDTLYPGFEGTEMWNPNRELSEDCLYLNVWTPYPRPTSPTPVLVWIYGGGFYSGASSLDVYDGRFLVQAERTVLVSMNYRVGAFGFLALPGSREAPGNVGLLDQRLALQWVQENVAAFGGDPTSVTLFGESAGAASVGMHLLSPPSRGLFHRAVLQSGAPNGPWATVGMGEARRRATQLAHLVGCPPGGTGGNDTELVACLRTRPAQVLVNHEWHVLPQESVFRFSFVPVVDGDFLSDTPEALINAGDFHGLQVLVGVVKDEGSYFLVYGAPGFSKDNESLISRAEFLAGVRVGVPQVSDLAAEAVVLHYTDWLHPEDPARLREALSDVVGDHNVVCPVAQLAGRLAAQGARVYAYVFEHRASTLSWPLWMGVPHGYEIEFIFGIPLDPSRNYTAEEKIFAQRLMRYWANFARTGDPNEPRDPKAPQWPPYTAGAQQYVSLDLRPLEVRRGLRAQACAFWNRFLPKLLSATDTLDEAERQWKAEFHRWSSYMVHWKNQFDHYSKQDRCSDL

[3] = target: T2, Acetylcholinesterase; assay: Inhibitory activity against Acetylcholinesterase; no inhibition at 100 uM
[4] = target: T1, Sterol O-acyltransferase 1; assay: Inhibitory activity against acyl-CoA:cholesterol acyltransferase (ACAT)

| Structure (SMILES) | IC50 [2] [µM] | other results |
| --- | --- | --- |
| COc1ccc(-c2cc3c(c(=O)o2)C(=O)C2[C@@]4(C)CC[C@H](O)[C@@](C)(CO)C4C[C@H](O)[C@@]2(C)O3)cc1 (stereo partly specified) | 70 | IC50 [1]: Not Active |
| CC(=O)OC[C@@]1(C)C2C[C@H](OC(C)=O)[C@@]3(C)Oc4cc(-c5cccnc5)oc(=O)c4[C@H](O)C3[C@@]2(C)CC[C@@H]1OC(C)=O (stereo partly specified) |  | IC50 [3]: No inhibition |
| COc1cc(-c2cc3c(c(=O)o2)C[C@]2(O)[C@@]4(C)C(=O)C=CC(C)(C)[C@]4(O)CC[C@@]2(C)O3)cc(OC)c1OC [TERRITREM B] | 0.008 | IC50 [4]: > 50 µM |
| COc1ccc(-c2cc3c(c(=O)o2)C[C@]2(O)[C@@]4(C)C(=O)C=CC(C)(C)[C@]4(O)CC[C@@]2(C)O3)cc1 | 0.026 |  |
| COc1ccc(-c2cc3c(c(=O)o2)C[C@]2(O)[C@@]4(C)C(=O)C=CC(C)(C)[C@]4(O)CC[C@@]2(C)O3)cc1OC | 0.001 | IC50 [4]: > 50 µM |
| C[C@]12CC[C@H](O)[C@@](C)(CO)C1C[C@H](O)[C@@]1(C)Oc3cc(-c4ccccn4)oc(=O)c3C(=O)C21 (stereo partly specified) | 101 |  |
| C[C@]12CC[C@H](O)[C@@](C)(CO)C1C[C@H](O)[C@@]1(C)Oc3cc(-c4ccncc4)oc(=O)c3C(=O)C21 (stereo partly specified) | 7.9 | IC50 [1]: No inhibition |
| COc1ccc(-c2cc3c(c(=O)o2)C(=O)C2[C@@]4(C)CC[C@H](O)[C@@](C)(CO)C4C[C@H](O)[C@@]2(C)O3)cc1OC (stereo partly specified) | 58 |  |
| C[C@]12CC[C@H](O)[C@@](C)(CO)C1C[C@H](O)[C@@]1(C)Oc3cc(-c4ccc(Cl)nc4)oc(=O)c3C(=O)C21 (stereo partly specified) | 80 |  |
| C[C@]12CC[C@H](O)[C@@](C)(CO)C1C[C@H](O)[C@@]1(C)Oc3cc(-c4cccnc4)oc(=O)c3C(=O)C21 (stereo partly specified) | 35 |  |
| COc1cccc(-c2cc3c(c(=O)o2)C(=O)C2[C@@]4(C)CC[C@H](O)[C@@](C)(CO)C4C[C@H](O)[C@@]2(C)O3)c1 (stereo partly specified) | > 93 |  |
| C[C@]12CC[C@H](O)[C@@](C)(CO)C1C[C@H](O)[C@@]1(C)Oc3cc(-c4ccccc4)oc(=O)c3C(=O)C21 (stereo partly specified) | 99 |  |
